Results from US7722892B2, “Compounds” (Syngenta Crop Protection, Inc., priority 2001, dated 2010).

Columns and labels:
[1] = tested on: TRZAW Triticum aestivum (wheat); assay: Glasshouse weed kill, adjuvant with fluazifop-P-butyl, track sprayer; type: in vivo; details: adjuvant 0.2% v/v, 21 days after treatment; for Mean Activity (% weed kill) TRZAW: with fluazifop-p-butyl, mean of 3 replicates and 4 rates; for ED90 TRZAW (concentration required to provide 90% weed kill): fluazifop-p-butyl rate, 200 l/ha
Experimental: (§1) An agrochemical composition was prepared containing 0.2% v/v of an adjuvant in a track sprayer containing fluazifop P butyl emulsified at one of four different concentrations. Weeds which had been grown to the 2.3 leaf stage were sprayed using volumes of 200 l/ha. Each sample was replicated three times. The following weed species were tested:— • AVEFA Avena fatua (wild oats) • LOLRI Lolium rigidum (rye grass) • TRZAW Triticum aestivum (wheat) • SETVI Setaria viridis (green foxtails)
(§2) Activity was measured 21 days after treatment and was compared with a standard composition containing only fluazifop-p-butyl. The concentration required to provide 90% weed kill was calculated and is given in TABLE 1 below together with the mean ED90 across the species.
(§3) Further adjuvants of the present invention were tested for activity in combination with fluzifop-p-butyl. Activity (% weed kill) was measured 21 days after treatment and is given as a mean of 3 replicates and 4 rates of fluazifop-p-butyl. All adjuvants were applied at 0.2% v/v. The results are given in Table 2 in comparison with a corresponding composition containing no adjuvant.

[2] = tested on: AVEFA Avena fatua (wild oats); assay: as above; type: in vivo; details: adjuvant 0.2% v/v, 21 days after treatment; for Mean Activity (% weed kill) AVEFA: with fluazifop-p-butyl, mean of 3 replicates and 4 rates; for ED90 AVEFA (concentration required to provide 90% weed kill): fluazifop-p-butyl rate, 200 l/ha
Experimental: as §1, §2, §3

[3] = tested on: SETVI Setaria viridis (green foxtails); assay: as above; type: in vivo; details: adjuvant 0.2% v/v, 21 days after treatment; for Mean Activity (% weed kill) SETVI: with fluazifop-p-butyl, mean of 3 replicates and 4 rates; for ED90 SETVI (concentration required to provide 90% weed kill): fluazifop-p-butyl rate, 200 l/ha
Experimental: as §1, §2, §3

[4] = tested on: LOLRI Lolium rigidum (rye grass); assay: as above; type: in vivo; details: adjuvant 0.2% v/v, 21 days after treatment; for Mean Activity (% weed kill) LOLRI: with fluazifop-p-butyl, mean of 3 replicates and 4 rates; for ED90 LOLRI (concentration required to provide 90% weed kill): fluazifop-p-butyl rate, 200 l/ha
Experimental: as §1, §2, §3

[5] = tested on: AVEFA, LOLRI, TRZAW, SETVI; assay: Weed kill with fluazifop-P-butyl, mean across the species; type: in vivo; details: adjuvant 0.2% v/v, 21 days after treatment; for Mean Activity (% weed kill) Mean over all species: with fluazifop-p-butyl; for Mean ED90 across the species: fluazifop-p-butyl rate
Experimental: as §1, §2, §3

[6] = tested on: APESV (Apera Spica-Venti); assay: Adjuvant with thin leaved grass herbicide (oxadiazepine pivalate ester), track sprayer; type: in vivo; details: 200 l/ha, average of two replicates
Experimental: (§4) The indicated adjuvants were evaluated in combination with a thin leaved grass herbicide 2,2,-dimethyl-propionic acid-8-(2,6-diethyl-4-methyl-phenyl)-9-oxo-1,2,4,5-tetrahydro-9H-pyrazolo[1,2-d][1,4,5]oxadiazepine-7-yl ester. The weeds were sprayed at the growth stages shown in the table with pesticide emulsions using a track sprayer and volumes of 200 l/ha. The adjuvants were added at 5% v/v as tank mix additives. Each result is the average of two replicates.

[7] = tested on: LOLMU; assay: as above; type: in vivo; details: 200 l/ha, average of two replicates
Experimental: as §4

[8] = tested on: PHAPA (Phalaris paradoxa); assay: as above; type: in vivo; details: 200 l/ha, average of two replicates
Experimental: as §4

[9] = tested on: ALOMY; assay: as above; type: in vivo; details: 200 l/ha, average of two replicates
Experimental: as §4

[10] = tested on: ALOMY, APESV, AVEFA, LOLMU, PHAPA; assay: Adjuvant with thin leaved grass herbicide, mean of all weeds; type: in vivo
Experimental: as §4

[11] = tested on: AVEFA; assay: Adjuvant with thin leaved grass herbicide (oxadiazepine pivalate ester), track sprayer; type: in vivo, Avena fatua; details: 200 l/ha, average of two replicates
Experimental: as §4

[12] = tested on: Puccinia recondita; assay: Glasshouse disease control with azoxystrobin on inoculated barley; type: in vivo; details: adjuvant 0.5% v/v tank mix, four replicates
Experimental: The results quoted are the mean percentage disease control from four replicates on barley inoculated with Puccinia recondita. The adjuvant was added as a 0.5% v/v tank mix.

| Substance | Mean Activity (% weed kill) TRZAW [1] [%] | Mean Activity (% weed kill) AVEFA [2] [%] | Mean Activity (% weed kill) SETVI [3] [%] | Mean Activity (% weed kill) LOLRI [4] [%] | Mean Activity (% weed kill) Mean over all species [5] [%] | ED90 TRZAW (concentration required to provide 90% weed kill) [1] [g/ha] | ED90 AVEFA (concentration required to provide 90% weed kill) [2] [g/ha] | ED90 SETVI (concentration required to provide 90% weed kill) [3] [g/ha] | ED90 LOLRI (concentration required to provide 90% weed kill) [4] [g/ha] | Mean ED90 across the species [5] [g/ha] | other results |
| --- | --- | --- | --- | --- | --- | --- | --- | --- | --- | --- | --- |
| Isostearyl (2-hexyl-dodecan-1-ol) 10 Propylene Oxide [Isostearyl 10 PO] | 53.8 | 67.8 | 81.8 | 51.8 | 64 | – | – | – | – | – | – |
| Isostearyl (2-hexyl-dodecan-1-ol) 20 Propylene Oxide [Isostearyl 20 PO] | 37.3 | 58 | 80.9 | 52.5 | 57 | – | – | – | – | – | – |
| Oleic Acid 10 Ethylene Oxide End-Capped Methyl Ether [Oleic 10E Me Ether] | 56.1 | 71.3 | 78.4 | 56.2 | 66 | 28.4 | 16.7 | 15.8 | 34.8 | 23.9 | – |
| Oleic Acid 20 Ethylene Oxide End-Capped Methyl Ether [Oleyl 20 EO Me ether] | 52.1 | 72.3 | 74.6 | 54.9 | 63 | – | – | – | – | – | – |
| Oleyl 10 Ethylene Oxide End-Capped Butyl Ether [Oleyl 10 EO Bu ether] | 56 | 73.3 | 85.6 | 56.5 | 68 | – | – | – | – | – | APESV activity ([6]; herbicide rate 5 gai/ha): 53; APESV activity ([6]; herbicide rate 7.5 gai/ha): 97; APESV activity ([6]; herbicide rate 10 gai/ha): 98; LOLMU activity ([7]; herbicide rate 5 gai/ha): 91; LOLMU activity ([7]; herbicide rate 7.5 gai/ha): 98; LOLMU activity ([7]; herbicide rate 10 gai/ha): 93; PHAPA activity ([8]; herbicide rate 5 gai/ha): 93; PHAPA activity ([8]; herbicide rate 7.5 gai/ha): 96; PHAPA activity ([8]; herbicide rate 10 gai/ha): 99; ALOMY activity ([9]; herbicide rate 5 gai/ha): 53; ALOMY activity ([9]; herbicide rate 7.5 gai/ha): 75; ALOMY activity ([9]; herbicide rate 10 gai/ha): 88; Mean All Weeds ([10]; herbicide rate 5 gai/ha): 76; Mean All Weeds ([10]; herbicide rate 7.5 gai/ha): 93; Mean All Weeds ([10]; herbicide rate 10 gai/ha): 95; AVEFA activity ([11]; herbicide rate 5 gai/ha): 89; AVEFA activity ([11]; herbicide rate 7.5 gai/ha): 98; AVEFA activity ([11]; herbicide rate 10 gai/ha): 99 |
| Oleyl 10 Propylene Oxide End-Capped butyl ether [Oleyl 10P Bu Ether] | 45.8 | 71.4 | 84.2 | 54.4 | 64 | 29.2 | 19.8 | 16.7 | 34.9 | 25.2 | – |
| Oleyl 10 Propylene Oxide [Oleyl 10PO] | 54.3 | 72.6 | 84.6 | 55.9 | 67 | – | – | – | – | – | APESV activity ([6]; herbicide rate 5 gai/ha): 23; APESV activity ([6]; herbicide rate 7.5 gai/ha): 89; APESV activity ([6]; herbicide rate 10 gai/ha): 98; LOLMU activity ([7]; herbicide rate 5 gai/ha): 33; LOLMU activity ([7]; herbicide rate 7.5 gai/ha): 60; LOLMU activity ([7]; herbicide rate 10 gai/ha): 80; PHAPA activity ([8]; herbicide rate 5 gai/ha): 23; PHAPA activity ([8]; herbicide rate 7.5 gai/ha): 98; PHAPA activity ([8]; herbicide rate 10 gai/ha): 99; ALOMY activity ([9]; herbicide rate 5 gai/ha): 55; ALOMY activity ([9]; herbicide rate 7.5 gai/ha): 70; ALOMY activity ([9]; herbicide rate 10 gai/ha): 92; Mean All Weeds ([10]; herbicide rate 5 gai/ha): 41; Mean All Weeds ([10]; herbicide rate 7.5 gai/ha): 83; Mean All Weeds ([10]; herbicide rate 10 gai/ha): 93; AVEFA activity ([11]; herbicide rate 5 gai/ha): 70; AVEFA activity ([11]; herbicide rate 7.5 gai/ha): 96; AVEFA activity ([11]; herbicide rate 10 gai/ha): 98 |
| Oleyl 20 Ethylene Oxide End-Capped Butyl Ether [Oleyl 20E Bu Ether] | 59.3 | 76.1 | 78.1 | 68.8 | 71 | 21.4 | 19.5 | 16.5 | 27.5 | 21.2 | mean percentage disease control ([12]; Azoxystrobin 0 mgai/l): 5.9%; mean percentage disease control ([12]; Azoxystrobin 0.625 mgai/l (Quadris 25 SC)): 66.5%; mean percentage disease control ([12]; Azoxystrobin 1.25 mgai/l (Quadris 25 SC)): 82.7%; mean percentage disease control ([12]; Azoxystrobin 2.5 mgai/l (Quadris 25 SC)): 90.5% |
| Oleyl 20 Propylene Oxide End-Capped butyl ether [Oleyl 20P Bu Ether] | 38.8 | 67.4 | 75.9 | 46 | 57 | 32.2 | 23.4 | 19 | 48.6 | 30.8 | – |
| Oleyl 20 Propylene Oxide [Oleyl 20 PO] | 53.3 | 70.6 | 80.4 | 36.3 | 60 | – | – | – | – | – | – |
